Source: article PMC5457661, “Dysregulation of lysophosphatidic acids in multiple sclerosis and autoimmune encephalomyelitis” (Acta Neuropathologica Communications, 2017)
“Also recorded” adds a separate entry of the source. Read-outs that look alike come from different tables or passages of the source.

What was measured:
[1] = tested on: LPAR1, 2, 3 or 4; assay: LPA receptor activation panel in COS cells with heterologous expression of LPAR1, 2, 3 or 4 plus Gα15, mock controls; assay type: cell-based, human; conditions: for LPAR activation (agonist activity): calcium transient AUC, all heterologously expressed LPARs
Procedure: (§1) To study the activation profile of heterologously expressed LPA receptors, COS-1 cells were seeded in 96-well plates at a density of 50.000 cells/well. Next day, they were co-transfected with plasmids containing cDNA for a calcium-sensitive bioluminescent fusion protein between aequorin and GFP [3] and plasmids containing the indicated receptor cDNA or control (empty vector, mock) together with the promiscuous Gα15 [42] at a concentration of 50 ng/well by using FuGENE 6 reagent (Promega) according to manufacturer’s instructions. Forty-eight hours later, cells were loaded with 5 μM coelenterazine h (Invitrogen) in HBSS buffer containing 1.8 mM CaCl2 and 10 mM glucose for 2 h at 37 °C. Measurements were performed by using a luminometric plate reader (Flexstation 3) for 100 s following ligand stimulation. The area under each calcium transient was calculated by using SoftMaxPro software and expressed as area under the curve (AUC). The following lipids were used for stimulation: 1-Palmitoyl-LPA (LPA16:0), 1-oleoyl-LPA (LPA18:1), 1-stearoyl-LPA (LPA18:0), 1-lineoyl-LPA (LPA18:2), 1-arachidonoyl-LPA (LPA20:4). LPA16:0 and 18:1 were from Cayman, the others from AvantiPolar Lipids.

[2] = biological target: T1, LPAR1 (Homo sapiens, UniProt Q92633); assay: LPA receptor activation, aequorin-GFP calcium luminescence in COS-1 cells co-transfected with Gα15; assay type: cell-based; conditions: compared with other LPAs
T1 construct: plasmids containing the indicated receptor cDNA or control (empty vector, mock); expressed in transfected cells; host or cells: COS-1
T1 sequence (Q92633 whole entry): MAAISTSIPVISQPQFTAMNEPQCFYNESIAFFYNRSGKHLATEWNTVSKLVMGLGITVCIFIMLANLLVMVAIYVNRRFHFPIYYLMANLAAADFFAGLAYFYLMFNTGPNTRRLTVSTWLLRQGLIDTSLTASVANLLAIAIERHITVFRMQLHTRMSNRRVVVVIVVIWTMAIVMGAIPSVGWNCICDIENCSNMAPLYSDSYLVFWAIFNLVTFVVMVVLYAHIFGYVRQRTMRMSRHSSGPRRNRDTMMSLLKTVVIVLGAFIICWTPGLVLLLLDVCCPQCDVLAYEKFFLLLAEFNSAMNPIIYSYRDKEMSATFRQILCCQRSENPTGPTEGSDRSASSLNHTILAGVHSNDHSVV
Procedure: as §1

[3] = biological target: T2, LPAR2 (Homo sapiens, UniProt Q9HBW0); assay: as above; assay type: cell-based
T2 construct: plasmids containing the indicated receptor cDNA or control (empty vector, mock); expressed in transfected cells; host or cells: COS-1
T2 sequence (Q9HBW0 whole entry): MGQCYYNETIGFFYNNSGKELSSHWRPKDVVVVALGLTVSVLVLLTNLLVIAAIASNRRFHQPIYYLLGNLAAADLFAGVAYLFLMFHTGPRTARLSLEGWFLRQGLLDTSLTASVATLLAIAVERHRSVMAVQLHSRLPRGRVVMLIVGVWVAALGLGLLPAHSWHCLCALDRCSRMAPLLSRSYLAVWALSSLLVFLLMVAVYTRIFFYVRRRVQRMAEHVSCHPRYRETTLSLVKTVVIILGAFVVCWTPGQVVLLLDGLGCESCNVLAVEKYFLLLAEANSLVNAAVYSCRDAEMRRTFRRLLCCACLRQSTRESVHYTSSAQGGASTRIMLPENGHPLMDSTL
Procedure: as §1

[4] = Plasma concentration time courses and basic pharmacokinetics of the LPAR2 agonist (LC-MS/MS); assay type: in vivo, SJL/J mice
Procedure: (§2) Female SJL/J mice (Envigo, Germany), aged 10–12 weeks at immunization were used for study of relapsing-remitting EAE and female TCR^1640 mice for spontaneous RR-EAE [45]. Female C57BL6/J mice and LPAR2^−/− mice and LPAR2^+/+ littermates were used for the study of primary progressive EAE. LPAR2^−/− mice have a mixed C57BL6/J x Sv129 background with about 25% Sv129. Mice were housed at 3–5 mice per cage at constant room temperature (21 ± 1 °C) under a regular 12 h light/dark schedule. Food and water were available ad libitum. Animals were treated orally via the drinking water with FTY720 (fingolimod) at 0.5 mg/kg/d starting 3 days after immunization for preventive treatment. Monoclonal anti-Itga4 antibody treatment (natalizumab) in SJL/J mice consisted in 3 intraperitoneal injections (1x200 μg, 2x 150 μg) on day 11, 14 and 19. The LPAR2 agonist GRI 977143 was administered perorally in cornflakes soaked with 10% sucrose/10% DMSO in water with 100 μg/mouse/d of the drug starting 3d after immunization. Control animals received the respective vehicle. Oral bioavailability (F) of the LPAR2 agonist and basic kinetics were assessed by LC-MS/MS analysis of plasma concentrations. Tmax and Cmax were directly taken from the plasma concentration time courses. AUCs were calculated according to the linear trapezoidal rule. The clearance was calculated as Cl = Dose*F/AUCs and the half-life, t1/2 = ln2/λ, where λ is the terminal decay constant.

[5] = biological target: T3, LPAR1, 2, 3 or 4 (Homo sapiens, UniProt Q9HBW0); assay: LPA receptor activation panel in COS cells with heterologous expression of LPAR1, 2, 3 or 4 plus Gα15, mock controls; assay type: cell-based; conditions: COS cells with heterologous expression of LPAR1, 2, 3 or 4
T3 construct: expressed in transfected cells; host or cells: COS-1
T3 sequence (Q9HBW0 whole entry): as above
Procedure: as §1

[6] = tested on: RR-EAE SJL/J mice; assay: Relapsing-remitting EAE (PLP139-151/CFA/PTX immunization), clinical scores, body weight, spinal cord immunofluorescence; assay type: in vivo
Procedure: as §2
C57BL6/J and LPAR2 mice were immunized according to a standard protocol using the Hooke Kit™ MOG35-55/CFA emulsion PTX (EK-2110, Hooke Labs, St Lawrence, MA), which contains 200 μg myelin oligodendrocyte glycoprotein (MOG) 35–55 emulsified in 200 μl Complete Freund’s Adjuvant (CFA). The emulsion was injected subcutaneously at two sites followed by two intraperitoneal (i.p.) injections of 200 ng pertussis toxin (PTX) in phosphate buffered saline (PBS), the first 1–2 h after MOG35-55, and the second 24 h later. SJL mice were immunized using Hooke Kit™ PLP139-151/CFA emulsion PTX (EK-2120), which contains 200 μg myelin proteolipid protein (PLP) 139–151 in 200 μl CFA (Hooke Labs, US). Injections of the emulsion and PTX were done as described for C57BL6 mice.
EAE scores were assessed daily to evaluate the severity and extent of motor function deficits. Score 0, normal motor functions; score 0.5, distal paralysis of the tail; score 1, complete tail paralysis; score 1.5, mild paresis of one or both hind legs; score 2, severe paresis of hind legs; score 2.5, complete paralysis of one hind leg; score 3, complete paralysis of both hind legs; score 3.5, complete paralysis of hind legs and paresis of one front leg. Serum and tissues were sampled after the second peak, 35–36 days after immunization.
Mice were terminally anaesthetized with isoflurane and cardially perfused with cold 0.9% NaCl, followed by 4% paraformaldehyde (PFA) in 1x PBS for fixation. […]
Tiled images of individual sections were captured with equal filter and acquisition parameters to assure comparability independent of genotype or treatment and subsequently stitched to cover the complete ventral horn of the spinal cord. Iba1+ and CD11b + microglia/macrophages in the gray matter and white matter were quantified using the particle counter plugin of FIJI ImageJ. […] Three or more non-overlapping images of 3 mice were analyzed per group.

[7] = biological target: T2, LPAR2; set-up: method as in not given; conditions: reported value; ref not given; cited from earlier work
[8] = tested on: serum LPAs; assay: Serum LPA concentrations (LC-MS/MS) in medication subgroups of MS patients; assay type: in vivo, human; conditions: MS patients on prophylactic treatment vs no medication, beta interferon or other drugs
Source text: Human samples and data were available from an observational cross-sectional investigation of 102 multiple sclerosis patients (31 men, 71 women, demographic data Table 1) consecutively recruited from outpatients and inpatients of the Department of Neurology of the Goethe University Hospital Frankfurt, Germany. Data and blood collection was part of the local bio-banking project (Neurological Department of the Goethe University, Frankfurt), adhered to the Declaration of Helsinki and was approved by the Ethics Committees of the Medical Faculty of the Goethe University. Cerebrospinal fluid samples were available from a previous study including 20 MS patients and 10 control patients with other non-inflammatory neurologic diseases. For long-term time course analyses additional 15 patients were recruited and observed up to 3.5 years. […]
(§3) Quantitative LPA analysis was performed with liquid chromatography-electrospray ionization-tandem mass spectrometry (LC-ESI-MS/MS) with a hybrid triple quadrupole-ion trap QTrap 5500 mass spectrometer (AB Sciex, Germany) as described without knowledge of clinical data or treatment groups. […] The internal standard method was used for quantification with Analyst Software V1.5 (Applied Biosystems, Germany). […]

[9] = tested on: serum LPAs; assay: Serum LPA concentrations (LC-MS/MS) in treated SJL/J EAE mice; assay type: in vivo; conditions: 35 days after immunization, vs vehicle treated EAE mice
Procedure: as §2, with “Monoclonal anti-Itga4 antibody treatment (natalizumab) in SJL/J mice consisted in 3 intraperitoneal injections (1x200 μg, 2x 150 μg) on day 11, 14 and 19. The LPAR2 agonist GRI 977143 was administered perorally in cornflakes soaked with 10% sucrose/10% DMSO in water with 100 μg/mouse/d of the drug starting 3d after immunization. Control animals received the respective vehicle.” left out, “Tmax and Cmax were directly taken from the plasma concentration time courses.” left out, “constant. […]” for “constant.”
as §3

[10] = tested on: autotaxin; set-up: method as in PMID 19215222; conditions: cited from earlier work
[11] = biological target: T4, autotaxin (Mus musculus, UniProt Q9R1E6); assay: Autotaxin lyso-PLD activity ex vivo in primary splenocytes (C17-LPC to C17:0-LPA conversion); assay type: cell-based; conditions: splenocytes from treated EAE mice
T4 construct: from tissue; host or cells: living naïve mice, plasma sampled
Procedure: The spleens were removed and collected in a sterile wire mesh with 40 μm pore size over a Petri dish half filled with RPMI 1640 media and were gently pressed through the mesh using a 5 ml syringe plunger. The mesh was rinsed over the Petri dish with additional media to remove remaining cells. Disaggregated cells were transferred to a 15 ml Falcon tube and centrifuged at 2,000 rpm for 5 min and washed 2x in RPMI. The cell pellet was resuspended in RPMI, treated with erythrocyte lysis buffer for 10 min at room temperature, followed by centrifugation and resuspension in full medium (RPMI 1640 + 10% FBS + 1% Pen/Strep). Cells were plated in 6-well plates at 3x10^6/2 ml per well. Growth was stimulated with concanavalin A at 1 μg/ml. Cells were kept in an incubator at 37 °C, 95% humidity and 5% CO2 atmosphere and assays were performed after 2d in culture.
The lyso-PLD activity of ATX was measured in primary splenocytes of naïve and EAE mice. Cells were incubated for 2 h in 1.1 ml serum free RPMI 1640 medium and then stimulated for another 2 h with PMA 50 ng/ml and ionomycin 500 ng/ml in serum free medium before the autotaxin substrate, C17-LPC was added (100 μM in 1 μl in DMSO). […] C17-LPC is converted into the unnatural C17:0-LPA, which was analysed in supernatants and crude cell extracts by LC-MS/MS as described above. […]

[12] = biological target: T4, autotaxin; assay: LPA plasma concentration in naïve mice after autotaxin inhibitor; assay type: in vivo; conditions: i.p. 30 min before plasma sampling
Procedure: Quantitative LPA analysis was performed with liquid chromatography-electrospray ionization-tandem mass spectrometry (LC-ESI-MS/MS) with a hybrid triple quadrupole-ion trap QTrap 5500 mass spectrometer (AB Sciex, Germany) as described without knowledge of clinical data or treatment groups. Briefly, 2 cycles of liquid-liquid extraction of LPAs were done with 1-buthanol after adding the internal standard LPA17:0 (50 μl sample, 20 μl internal standard in 500 μl 1-butanol). The combined organic phases were dried under a gentle stream of nitrogen at 45 °C and subsequently re-dissolved in 200 μl methanol. A C18 column (Mercury 20 x 2 mm, 3 μm, 100 Å) and precolumn were used for chromatographic separation. A linear gradient was employed at a flow rate of 400 μl/min. Mobile phase A was water with ammonium formate 50 mM and formic acid (100:0.2, v/v) and mobile phase B acetonitrile/formic acid (100:0.1, v/v). The mass spectrometer operated in the negative ion mode and used multiple reaction monitoring (MRM). The mass transitions were m/z 409 → 79 (LPA 16:0), m/z 437 → 153 (LPA 18:0), m/z 431 → 79 (LPA 18:3) and m/z 457 → 153 (LPA 20:4) all with a dwell time of 50 ms. The internal standard method was used for quantification with Analyst Software V1.5 (Applied Biosystems, Germany). The calibration curve was linear over the range of 0.1–500 ng/ml and accuracy was >95%.

Compound: CCCCCCCCCCCCCCCCCCOC[C@@H](O)COP(=O)(O)O [octadecyl-LPA]
- LPAR activation (agonist activity) [1]: no effects

Compound: CCCCCCCC/C=C\CCCCCCCC(=O)OC[C@@H](O)COP(=O)(O)O [LPA18:1, 1-oleoyl-LPA]
- Emax [2]: highest Emax values
- Emax ([3]; compared with other LPAs): highest Emax values
- specificity (response of mock transduced cells) ([1]; mock-Gα15 transduced cells as control): most specific

Compound: O=C(O)c1ccccc1SCCCN1C(=O)c2cccc3cccc(c23)C1=O [GRI 977143]
- AUC ([4]; calculated from i.p. data): 4260 ng·h/mL
- CL ([4]; calculated from i.p. data): 23.5 mL/h
- Vd ([4]; calculated from i.p. data): 27.3 mL
- Tmax ([4]; plasma, after i.p. administration, SJL/J mice): 10 min
- EC50 ([3]; LPAR2 agonist, COS-1 cells): ~1000 nM
- LPAR2 specificity [5]: confirmed the LPAR2 specificity
- clinical EAE scores ([6]; 100 μg/mouse/d p.o. starting 3 d after immunization up to 35 d, vs vehicle): significantly lower clinical EAE scores
- body weight ([6]; 100 μg/mouse/d p.o. starting 3 d after immunization, vs vehicle): therapeutic efficacy was also evident
- infiltration of the white matter of the lumbar spinal cord with myeloid cells (CD11b positive particles) ([6]; 100 μg/mouse/d p.o., 36 days after immunization, vs vehicle): much reduced; also recorded: significantly reduced
- EC50 [7]: 1000 to 3000 nM

Compound: CCCCCCCCc1ccc(CCC(N)(CO)CO)cc1 [fingolimod]
- clinical EAE scores ([6]; fingolimod 0.5 mg/kg/day in drinking water from 3 d after immunization): only minor effects
- LPA concentrations in serum [8]: significantly lower
- LPA serum concentration [9]: additional LPA lowering effect
- autotaxin inhibition [10]: slow acting autotaxin inhibitor

Compound: CCCCCCCCCCCCCCCCOC[C@@H](O)COP(=O)(O)O [hexadecyl-LPA]
- LPAR activation (agonist activity) [1]: no effects

Compound: natalizumab: alpha-4 integrin (VLA4) targeting monoclonal antibody
- clinical EAE scores ([6]; 3 i.p. injections at d11 (200 μg), d14, d19 (150 μg)): reduced the clinical scores
- LPA concentrations in serum [8]: significantly lower
- LPA serum concentration [9]: significantly lower LPA levels
- maximum stimulation effect of PMA/Ionomycin on ATX activity [11]: significantly reduced

Compound: O=C(CCN1CCN(C(=O)OCc2cc(Cl)cc(Cl)c2)CC1)c1ccc2[nH]c(=O)oc2c1 [PF8380]
- LPA plasma concentration [12]: mainly reduced unsaturated LPAs
